Values of other authors, collected in patent US20030228369A1, “Process for conversion of high viscosity fluids and compositions thereof” (priority 2002, published 2003).

Settings: pH about 1.2

## CC(C)=CCC1=C(O)[C@](O)(CC=C(C)C)C(=O)C(C(=O)CC(C)C)=C1O [humulon]
  solubility at pH of the stomach / gastric fluid: not soluble
